Laboratory results from PMC10126419, “pyHeart4Fish: Chamber-specific heart phenotype quantification of zebrafish in high-content screens” (Frontiers in Cell and Developmental Biology, 2023).
“Also recorded” adds a separate entry of the source. Structures can show the parent of a compound that is named as a salt. Where two headings read alike, the source gives them in different places.

What was measured:
zebrafish embryos [1] = assay: Manually assessed pericardial edema in treated zebrafish; format: in vivo; details: for Pericardial edema severity: myl7:eGFP zebrafish
Source text: FIGURE 4 Quantitative data analysis with pyHeart4Fish. […] (A) The left graph presents the detected heart rate derived from the fast fourier transformation (FFT). […] (B) Percentual data on the severity of manually assessed pericardial edema in treated Tg(myl7:eGPF)^twu34/+ zebrafish. (C) The relative contractility derived from percentual size changes of each heart chamber (left graph). Approximate ejection fraction determined by chamber volume changes (right graph). […] The number of fish analyzed is shown in brackets after the treatment condition. Dotted gray lines indicate z-scores of ±1.96 and statistical significance with an alpha error of 5%.

[2] = system: Tg(myl7:eGFP)^twu34/+ zebrafish embryos; assay: Chamber-specific quantitative heart phenotyping with pyHeart4Fish; details: 20 µM; for Effect on heart function / morphology: contractility, conduction, arrhythmia, HS, EF / Effect on heart rate: vs DMSO controls; for Arrhythmia / Conduction defect: number of fish;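 on all read-outs here: embryos exposed 24 h from 24 hpf in 0.2% DMSO egg water, tricaine-anaesthetised, heartbeat videos imaged at 470 nm and hearts analysed chamber by chamber from pixel-intensity beat curves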
Procedure: (§1) Embryos were dechorionated at 21 hpf using 0.22 mg/ml pronase (Merck Chemicals) for 12 min. Then, embryos were carefully washed three times with egg water and transferred into a 96-deep-well plate. After incubation at 28°C for 3 h, excess water was removed with a glass capillary and exchanged with 100 µL/well of 20 µM compound solution from the Prestwick Chemical Library (Prestwick Chemicals, France) in 0.2% DMSO (v/v) in egg water. […] Subsequently, embryos were exposed to compounds for 24 h at 28°C in the dark to enable testing of light-sensitive compounds. Solutions were removed at 48 hpf before wells containing embryos were washed three times with system water. Then, treated embryos were transferred into 12-well plates containing 1 ml 0.03% tricaine in system water (Sigma-Aldrich, Germany). Testing different concentrations (5–80 µM) of compounds and their respective controls followed the above protocol.
(§2) Oriented embryos in 96-well plates were automatically imaged using an [sequence] Imaging Machine ([sequence] Imaging, Germany) widefield microscope. Z-stacks of 10 slices (dZ = 15 µm) were acquired in brightfield (BF) and 470 nm channels with a 4×0.13 numerical aperture objective. The focal plane was detected in the 470 nm channel using a course and secondary fine software autofocus. BF integration time was fixed at 20 ms exposure time and 55% LED intensity. The exposure time for the 470 nm channel was set to 10 ms with a 10% LED intensity. Heartbeat videos of 6 s at 6 frames/second (f/s) were acquired with a time-lapse at a 0 s interval in the focus plane acquired after secondary autofocus using the previously described integration and exposure settings with a 10×0.25 numerical aperture objective.
(§3) Hearts are analyzed chamber-specifically via the user-assisted region of interest (ROI) selection. Cardiac morphology parameters (HS and shape) are extracted as the median of the first six images/frames. Raw data of heartbeat curves for the atrium and ventricle are derived from the sum of pixel intensities and normalized chamber areas. Frequencies (in s^-1) of atrium and ventricle contraction are obtained by applying sine-curve fitting or fast Fourier transformation (FFT) using the SciPy modules “optimize.curve_fit” and “fft.rfft/fft.rfftfreq”, respectively ([Virtanen et al., 2020]). Curve fitting is performed with a maximum of 30 iterations while increasing the frequencies of the fitted sine function. The best fit is selected using the correlation coefficient between the raw data and the fitted function implemented in the NumPy package. A fitted sine function and fitting score are also determined for a truncated signal (first quarter), and the best-fitted sine function is kept to account for an unstable heartbeat signal. In the case of FFT, the first harmonic of the FFT signal is used as the frequency of the atrium or ventricle contraction. Analysis with pyHeart4Fish provides heartbeat videos in GIF format, heartbeat curves as PNG/PDF files and a data sheet containing meta information and cardiac parameters.

[3] = system: Tg(fli1a:nEGFP)^y7 zebrafish embryos; assay: Primary high-content heart rate screen of the Prestwick Chemical Library (HeartBeat software v.2.1); format: in vivo; details: 20 µM
Source text: Acquired image series were preprocessed and analyzed using the previously published HeartBeat software v.2.1 and provided scripts ([Gierten et al., 2020]). For increased comparability between experiments, each quantitative HR value (beats per minute) was divided by the mean of the DMSO controls from the respective experiment. This procedure minimizes variation and creates specific fold-change values that are z-score normalized in the next step. A 90% CI was used to reduce the probability of false-negative results. Finally, data from compounds with insufficient N and known aquatic toxicity were removed.
Based on a previously established high-throughput screening pipeline, we performed a high-content drug screen in zebrafish for cardiovascular modulators ([Poureetezadi et al., 2014]; [Gierten et al., 2020]; [Westhoff et al., 2020]). […] About 98% of the library’s compounds are approved by the Food and Drug Administration (FDA), European Medicines Agency (EMA) or other regulatory agencies. The drug library was screened at a concentration of 20 µM for 24 h until 48 hpf using the transgenic zebrafish line Tg(fli1a:nEGFP)^y7. Subsequently, BF images and videos were captured at 2 dpf to assess gross morphology. HR was analyzed with the previously published tool HeartBeat (v.2.1) to identify potential hit compounds. A 90% CI threshold for effect sizes of ±1.64 was used to reduce false-negative results. […] The Open Targets platform and the Mayo Clinic Drugs and Supplements Database were systematically searched for compound names and common synonyms ([Drugs and Supplements, 2022]; [Open Targets, 2022]). The Medical Subject Headings (MeSH) terms “compound name” and “heart rate” were applied to NCBI PubMed literature research before the first five pages of publications sorted by relevance were screened for relevant information. Furthermore, compounds were filtered for unknown targets (n = 3), FDA black box warning (n = 6) and aquatic toxicity (n = 4). […] Therefore, compounds with n < 3 were excluded (n = 7).

[4] = set-up: method as in Prestwick Chemical Library; details: solvents; library annotation, ref Prestwick Chemical Library; cited from earlier work
zebrafish embryos [5] = assay: Toxicity score (ToxScore) at increasing compound concentrations
Procedure: as §1
Embryos that were deceased and not intact were assigned a max. ToxScore value of 5.

zebrafish embryos [6] = assay: Gross morphology / development of treated zebrafish 2 dpf (brightfield); format: in vivo; details: 20 µM; for Gross morphology / developmental and teratogenic effects: 2 dpf
Procedure: FIGURE 5 Morphology of treated zebrafish 2 dpf. An overview of the gross phenotypes of treated zebrafish 2 days post-fertilization. All compounds were dissolved in DMSO; therefore, DMSO served as the negative control. NaCl served as the salt control. The effects of atorvastatin treatment on zebrafish embryos were previously established; thus, this drug was used as a positive control for cardioactivity. The aquatic toxic compound enilconazole was used as the toxic positive control. […] The black arrow in the image of iopanoic acid-treated zebrafish embryo indicates caudal fin deformity. The scale bar indicates 500 µm in overview brightfield images and 150 µm in fluorescence images. (a) Atrium; (v) ventricle.

[7] = system: Tg(myl7:eGFP)^twu34/+ zebrafish embryos; details: in vivo;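 further: embryos exposed 24 h from 24 hpf in 0.2% DMSO egg water, tricaine-anaesthetised, heartbeat videos imaged at 470 nm and hearts analysed chamber by chamber from pixel-intensity beat curves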
Procedure: as §1, §2, §3

[8] = number of fish, 20 µM, Tg(myl7:eGFP)
[9] = Tg(fli1a:nEGFP)^y7, zebrafish, in vivo, 24 h
[10] = 24 h until 48 hpf, Tg(fli1a:nEGFP)y7

Row | SMILES | Edema: Mild (zebrafish embryos [1]; [8]) | Edema: Moderate (zebrafish embryos [1]; [8]) | Edema: No edema (zebrafish embryos [1]; [8]) | Edema: Severe (zebrafish embryos [1]; [8]) | Arrhythmia [2] | Conduction defect [2] | Z-score Heart rate [3, 9] | Lit. Solubility [4] | Gross morphology / developmental and teratogenic effects (zebrafish embryos [6]) | further results
1 | CC(C)c1c(C(=O)Nc2ccccc2)c(-c2ccccc2)c(-c2ccc(F)cc2)n1CC[C@@H](O)C[C@@H](O)CC(=O)O [Atorvastatin, atorvastatin] | 5 | 1 | 5 | 0 | 11 | 0 |  |  |  | Effect on heart function / morphology: contractility, conduction, arrhythmia, HS, EF [2]: did not cause electrophysiological conduction defects; Effect on heart rate [2]: significantly decreased HR
2 | CN1CCCC(n2nc(Cc3ccc(Cl)cc3)c3ccccc3c2=O)CC1 (stereo not shown) [Azelastine hydrochloride] |  |  |  |  |  |  | -2.598 z-score | H2O, EtOH, DMSO |  | 
3 | CN(C)CCCOc1nn(Cc2ccccc2)c2ccccc12 [Benzydamine HCl] | 2 | 0 | 2 | 0 | 1 | 0 |  |  |  | Treated embryos with pericardial edema (zebrafish embryos [1]; 20 µM): 50%; Effect on heart function / morphology: contractility, conduction, arrhythmia, HS, EF [2]: do not induce arrhythmia; Effect on heart function / morphology: contractility, conduction, arrhythmia, HS, EF ([2]; listed as BZY): no conduction defects or arrhythmias were detected; also recorded: relative ventricle contractility increased significantly
4 | CN(C)CCC(c1ccc(Br)cc1)c1ccccn1 (stereo not shown) [Brompheniramine maleate] |  |  |  |  |  |  | -2.122 z-score |  |  | 
5 | CN(C)CCOC(c1ccc(Cl)cc1)c1ccccn1.O=C(O)/C=C\C(=O)O (stereo not shown) [Carbinoxamine maleate salt] |  |  |  |  |  |  |  | H2O, EtOH, CHCl3 |  | 
6 | CN1CCN(C(c2ccccc2)c2ccc(Cl)cc2)CC1 (stereo not shown) [Chlorcyclizine hydrochloride] |  |  |  |  |  |  |  | H2O, CHCl3 |  | Z-score Heart rate [3, 10]: -2.061 z-score
7 | CN1CCC[C@@H]1CCO[C@](C)(c1ccccc1)c1ccc(Cl)cc1 [Clemastine fumarate] |  |  |  |  |  |  | -2.7618 z-score | MeOH |  | 
8 | CN1CCC(OC(c2ccccc2)c2ccccc2)CC1 [Diphenylpyraline hydrochloride] |  |  |  |  |  |  | -3.549 z-score | H2O, EtOH |  | 
9 | C=CCOC(Cn1ccnc1)c1ccc(Cl)cc1Cl (stereo not shown) [Enilconazole, enilconazole] | 2 | 0 | 3 | 0 | 1 | 0 |  |  | inhibited pigmentation | Concentration-dependent toxic effects (zebrafish embryos [5]; 5–80 µM): dose-dependent; Effect on heart rate [2]: significantly reduced HR; Treated fish with developmental delays (zebrafish embryos [6]; both zebrafish lines): 100%
10 | CN1CCCN(C(c2ccccc2)c2ccc(Cl)cc2)CC1.Cl.Cl (stereo not shown) [Homochlorcyclizine dihydrochloride] |  |  |  |  |  |  |  |  |  | Z-score Heart rate [3, 10]: -1.853 z-score
11 | CCOC(=O)N1CCC(=C2c3ccc(Cl)cc3CCc3cccnc32)CC1 [Loratadine] |  |  |  |  |  |  |  |  |  | Z-score Heart rate [3, 10]: -1.771 z-score
12 | Oc1ccc(OCc2ccccc2)cc1 [Monobenzone] | 3 | 2 | 3 | 2 | 3 | 0 |  |  | caused depigmentation without delaying development | ToxScore (zebrafish embryos [5]; 80 µM): ≤ 2.5; Effect on heart function / morphology: contractility, conduction, arrhythmia, HS, EF [2]: did not cause any other alterations to heart phenotypes
13 | [Cl-].[Na+] [NaCl, sodium chloride] |  |  |  |  |  |  |  |  |  | Edema: Mild (zebrafish embryos [1]; zebrafish, in vivo): 7; Edema: Moderate (zebrafish embryos [1]; zebrafish, in vivo): 0; Edema: No edema (zebrafish embryos [1]; zebrafish, in vivo): 8; Edema: Severe (zebrafish embryos [1]; zebrafish, in vivo): 0; Arrhythmia [7]: 1; Chamber size Atrium Max. Contraction [7]: -0.090 z-score; Chamber size Atrium Max. Dilation [7]: -0.215 z-score; Chamber size Ventricle Max. Contraction [7]: -0.643 z-score; Chamber size Ventricle Max. Dilation [7]: 0.353 z-score; Conduction defect [7]: 0; Effect on heart function / morphology: contractility, conduction, arrhythmia, HS, EF [7]: did not significantly affect heart morphology or functionality; Ejection Fraction Atrium [7]: -0.097 z-score; Ejection Fraction Ventricle [7]: 1.036 z-score; FFT freq Atrium (heart rate) [7]: -0.679 z-score; FFT freq Ventricle (heart rate) [7]: -0.573 z-score; Heart size [7]: 0.745 z-score; Relative contractility Atrium [7]: -0.00158 z-score; Relative contractility Ventricle [7]: 0.272 z-score
14 | OCCN1CCN(CCCN2c3ccccc3C=Cc3ccccc32)CC1 [Opipramol diHCl] | 5 | 0 | 0 | 0 | 1 | 0 |  |  | mild developmental delay | Pericardial edema severity (zebrafish embryos [1]; 20 µM): mild edema; Effect on heart function / morphology: contractility, conduction, arrhythmia, HS, EF [2]: do not induce arrhythmia; Effect on heart rate [2]: did not affect HR; Effect on heart function / morphology: contractility, conduction, arrhythmia, HS, EF ([2]; listed as OPI): significantly reduced relative ventricular contractility
15 | N=C(N)c1ccc(OCCCCCOc2ccc(C(=N)N)cc2)cc1 [Pentamidine isethionate] | 4 | 0 | 4 | 0 | 1 | 0 |  |  | did not reveal teratogenic effects | 
16 | CC(=O)[C@H]1CC[C@H]2[C@@H]3CC=C4C[C@@H](O)CC[C@]4(C)[C@H]3CC[C@]12C [Pregnenolone] | 1 | 3 | 0 | 1 | 1 | 1 |  |  | teratogenic effects | Pericardial edema severity (zebrafish embryos [1]; 20 µM): moderate to severe pericardial and yolk edema; Effect on heart function / morphology: contractility, conduction, arrhythmia, HS, EF ([2]; listed as P5): relative contractility of both heart chambers was affected by impaired contraction; also recorded: HS and morphology were not affected
17 | Cc1cc(/C=C/c2ccc3cc(N(C)C)ccc3[n+]2C)c(C)n1-c1ccccc1 [Pyrvinium pamoate] | 1 | 0 | 4 | 0 | 1 | 0 |  |  | no teratogenic effects | Effect on heart function / morphology: contractility, conduction, arrhythmia, HS, EF [2]: did not affect relative contractility, conduction, and HS
18 | CC(C)(C)c1ccc(C(O)CCCN2CCC(C(O)(c3ccccc3)c3ccccc3)CC2)cc1 (stereo not shown) [Terfenadine] |  |  |  |  |  |  | -5.761 z-score | EtOH/H2O:50/50 |  | 
19 | CN(C)CCN(Cc1ccccc1)c1ccccn1 [Tripelennamine HCl, tripelennamine HCl] | 4 | 5 | 2 | 0 | 0 | 0 | -2.358 z-score | DMSO | development was not delayed | ToxScore, highest over tested concentrations (zebrafish embryos [5]; 5–80 µM): ≤ 2.6; Effect on heart rate [2]: decreased HR
20 | Cc1ccc(/C(=C\CN2CCCC2)c2ccccn2)cc1.Cl [Triprolidine hydrochloride] |  |  |  |  |  |  |  | H2O, MeOH, EtOH |  | 
